Laboratory results: the COVID Moonshot data (paper PMC7615835)
“And” between values parts separate entries of the source, which are not always exact repeats. Identical values can stand only once.

target: SARS-CoV-2 Main Protease (SARS-CoV-2) (UniProt P0DTD1)

| Compound | IC50 |
| --- | --- |
| O=C(Nc1ccc(N(Cc2ccsc2)C(=O)Cn2nnc3ccccc32)cc1)C1CC1 | 3.99 µM |
| COc1ccc(N(C(=O)c2ccco2)C(C(=O)NCCc2cccc(F)c2)c2cccnc2)cc1 (centres undefined) | 30.5 µM |
| COc1c(Cl)cccc1Nc1cc(Cl)cc(CC(=O)Nc2cncc3ccccc23)c1 | 1.68 µM |
| CN(C)C(=O)c1cc2c(NC(=O)C3CCOc4ccc(Cl)cc43)cncc2s1 (centres undefined) | 0.399 µM |
| O=C(CN(C(=O)Cn1ccnn1)c1ccc(-c2ccccn2)cc1)N1CCNCC1 | > 99.5 µM |
| CC(CCc1ccco1)NC(=O)Nc1cn(C)c(=O)c2ccccc12 (centres undefined) | 44.5 µM |
| COC1CCC2OCCN(C(=O)c3ccc4nc[nH]c4c3)C2C1 (centres undefined) | > 99.5 µM |
| O=C(Cc1cc(Cl)cc(NC23CC4CC(CC(O)(C4)C2)C3)c1)Nc1cncc2ccccc12 | 2.87 µM |
| Cc1cc(C)[n+](C)c(C#N)n1 | > 99.5 µM |
| Cc1cc(C)c(S(=O)(=O)N2CCCC2C(=O)Nc2ccc3[nH]c(=O)sc3c2)c(C)c1 (centres undefined) | > 99.5 µM |
| O=C(NCCc1cccc(F)c1)C(c1cccnc1)N(C(=O)c1cocn1)c1ccc(-n2ccnc2)cc1 (centres undefined) | > 99.5 µM |
| COc1ccc(-c2cc(N)n(-c3cc(Cl)cc(CC(=O)Nc4cncc5ccccc45)c3)n2)cc1 | 2.71 µM |
| O=C(Cc1cc(Cl)cc(NCc2ccc(Cl)c(C(F)(F)F)c2)c1)Nc1cncc2ccccc12 | 2.98 µM |
| CCc1cc(Br)ccc1Nc1cc(Cl)cc(CC(=O)Nc2cncc3ccccc23)c1 | 3.15 µM |
| COc1ccccc1OC1CN(C(=O)c2cc(=O)[nH]c3ccccc23)C1 | > 99.5 µM |
| O=C(Nc1cnc2ccccn12)C1CCNc2cc(Cl)c(Cl)cc21 (centres undefined) | 1.98 µM |
| CN(c1cc(Cl)cc(CC(=O)Nc2cncc3ccccc23)c1)C1CCN(C(=O)OC(C)(C)C)CC1 | 2.5 µM |
| O=C(Cc1cc(Cl)cc(Nc2cc(Cl)c(F)c(Cl)c2)c1)Nc1cncc2ccccc12 | 1.85 µM |
| CC(C)N(C)S(=O)(=O)N1Cc2ccc(Cl)cc2C(C(=O)Nc2cncc3ccccc23)C1 (centres undefined) | 0.126 µM |
| O=C(NCC1(C(=O)Nc2cncc3ccccc23)CCOc2ccc(Cl)cc21)C1COCCN1CC(F)(F)F (centres undefined) | 17.1 µM and 27.2 µM |
| C[C@H]1C[C@H](C(=O)Nc2cncc3ccccc23)c2cc(Cl)ccc2O1 (stereo in doubt) | 52.1 µM |
| O=C(c1ccc(N2CCCC2)nc1)N1CCCC(c2ccn[nH]2)C1 (centres undefined) | > 99.5 µM |
| O=C(Cc1cccc(Cl)c1)Nc1[nH]nc2cc(F)ccc12 | > 99.5 µM |
| COc1ccc(CNCC2(C(=O)Nc3cncc4ccccc34)CCOc3ccc(Cl)cc32)cc1OCC(N)=O (centres undefined) | 11.5 µM |
| O=C(Cc1cc(Cl)cc(Nc2cccc(C(F)(F)F)c2F)c1)Nc1cncc2ccccc12 | 1.84 µM |

| Compound | IC50 |
| --- | --- |
| O=C(Cc1cc(Cl)cc(NCc2ccc3c(c2)OCO3)c1)Nc1cncc2ccccc12 | 2.52 µM |
| CC(C)(C)c1ccc(N(C(=O)c2cnc(C(C)(C)CF)o2)C(C(=O)NCCc2cccc(F)c2)c2cccnc2)cc1 (centres undefined) | > 99.5 µM |
| CCCc1nn(C)c(C(=O)Nc2cc(Cl)cc(CC(=O)Nc3cncc4ccccc34)c2)c1N | 7.35 µM |
| O=C(CCl)N1CCN(Cc2cnc(Cc3ccccc3)s2)CC1 | 29.8 µM |
| O=C(Cc1cc(Cl)cc(Nc2cc(Cl)cc([N+](=O)[O-])c2O)c1)Nc1cncc2ccccc12 | 4.69 µM |
| Cc1ccncc1NC(=O)Cc1cc(Cl)cc(OC2COC2)c1 | 16 µM |
| Cc1ccc(S(=O)(=O)N2CCN(C(=O)CCl)C[C@H]2C(=O)NC2CCCCC2)cc1 (stereo in doubt) | 4.48 µM |
| N[C@@H](Cc1ccc(O)cc1)C(=O)Nc1cc(Cl)cc(CC(=O)Nc2cncc3ccccc23)c1 (stereo in doubt) | 2.51 µM |
| CC(C)Cn1cc(NC(=O)NCc2ccco2)c2ccccc2c1=O | 29.6 µM |
| O=C(c1cc(=O)[nH]c2ccccc12)N1CCN(Cc2cccc(C(F)(F)F)c2)CC1 | 34.2 µM |
| CC(C)(C)c1ccc(N(C(=O)c2cn(CCN3CCOCC3)nn2)C(C(=O)NCCc2cccc(F)c2)c2cccnc2)cc1 (centres undefined) | 10.5 µM |
| COC1CN(S(=O)(=O)N2Cc3ccc(Cl)cc3C3(CCN(c4cncc5ccccc45)C3=O)C2)C1 (centres undefined) | 0.224 µM |
| O=C(Cc1cc(Cl)cc(Nc2nnc(C(F)(F)F)s2)c1)Nc1cncc2ccccc12 | 2.44 µM |
| O=C(Nc1cncc2ccccc12)[C@H]1COc2ccc(Cl)cc2C1 (stereo in doubt) | > 99.5 µM |
| Cc1nc2cc(C(=O)NNc3nc4ccncc4s3)ccc2o1 | > 99.5 µM |
| O=C(Nc1cncc2ccccc12)C1CCOc2c(OCCC(F)(F)F)cc(Cl)cc21 (centres undefined) | 3.14 µM |
| C[C@@]1(C(=O)Nc2cncc3c2CCCC3)CNS(=O)(=O)c2ccc(Cl)cc21 (stereo in doubt) | 3.72 µM |
| CCCOc1cc(Cl)cc2c1OCCC2C(=O)Nc1cncc2ccccc12 (centres undefined) | 5.63 µM |
| COC1(C(=O)Nc2cncc3cc(S(=O)(=O)N(C)C)ccc23)CCOc2ccc(Cl)cc21 (centres undefined) | 0.458 µM |
| O=C(Nc1ccc(-c2nnc[nH]2)cc1)c1cccc(F)c1F | > 99.5 µM |
| CN1CCN(c2ccc(F)cc2C(=O)N2CCC(C3CCNC3)CC2)CC1 (centres undefined) | > 99.5 µM |
| O=C(Cc1cc(Cl)cc(Nc2ccc(OCc3ccccc3)cc2)c1)Nc1cncc2ccccc12 | 8.23 µM |
| Cc1ccncc1NC(=O)N(CCC1CCCCC1)c1cc(Cl)cc(OC(C)C)c1 | 24.6 µM |
| O=C(NCCc1cccc(F)c1)C(c1cccnc1)N(Cc1cccnc1)C(=O)c1cnc[nH]1 (centres undefined) | > 99 µM |
| N#Cc1ccc(CC(=O)Nc2cncc3ccccc23)cc1 | > 99.5 µM |

| Compound | IC50 |
| --- | --- |
| Nc1cncc2c1CCCN2C(=O)Cc1cccc(Cl)c1 | 25.5 µM and 41.4 µM |
| Cc1ccncc1NC(=O)Cc1cc(Cl)cc(C2COC2)c1 | 19.1 µM |
| CC(NCc1c[nH]c2nccnc12)c1cc(F)ccc1N1CCC(O)CC1 (centres undefined) | > 99.5 µM |
| NC(=O)c1ccc2c(NC(=O)Cc3cccc(Cl)c3)cncc2c1 | 1.59 µM |
| N#Cc1ccc(C(=O)N2C[C@@H](F)C[C@H]2CNC(=O)C2CCCC2O)[nH]1 (stereo in doubt) | > 99.5 µM |
| N#CC1(CS(=O)(=O)N2Cc3ccc(Cl)cc3C(C(=O)Nc3cncc4cc(F)ccc34)C2)CC1 (centres undefined) | 0.222 µM |
| N#Cc1cc(Cl)c(Nc2cc(Cl)cc(CC(=O)Nc3cncc4ccccc34)c2)c(Cl)c1 | 1.79 µM |
| CN(C)S(=O)(=O)NCC1(C(=O)Nc2cncc3ccccc23)CCOc2ccc(Cl)cc21 (centres undefined) | 2.73 µM |
| Cc1ccncc1NC(=O)Cc1cc(Cl)cc(NCC(C)(C)C#N)c1 | 36.5 µM |
| COC(=O)CNC(=O)C(c1cccnc1)N(C(=O)c1cocn1)c1ccc(C(C)(C)C)cc1 (centres undefined) | 10.8 µM |
| N#Cc1cc(Cl)ccc1Nc1cc(Cl)cc(CC(=O)Nc2cncc3ccccc23)c1 | 2.23 µM |
| CC(C)(C)c1ccc(N(C(=O)c2ccco2)C(C(=O)NCCc2cccc(F)c2)c2cncc3ccccc23)cc1 (centres undefined) | 0.403 µM |
| O=C(Nc1cncc2ccccc12)C1CCN(Cc2cnc[nH]2)c2ccc(Cl)cc21 (centres undefined) | 1.12 µM |
| COc1ccc(Nc2cc(Cl)cc(CC(=O)Nc3cncc4ccccc34)c2)cc1C(F)(F)F | 1.89 µM |
| O=C(NCCc1cccc(F)c1)C(c1cccnc1)N(C(=O)c1cocn1)C1CCN(c2ccccc2)C1 (centres undefined) | > 99.5 µM |
| O=C(Cc1cc(Cl)cc(Nc2cc(F)c(F)cc2Br)c1)Nc1cncc2ccccc12 | 2.16 µM |
| O=C(Cc1cc(Cl)cc(NC2CCN(Cc3ccccc3)CC2)c1)Nc1cncc2ccccc12 | 5.93 µM |
| COc1ccc2c(NC(=O)Cc3cccc(Cl)c3)noc2c1 | > 99.5 µM |
| O=C1CC(C(=O)Nc2cncc3ccccc23)c2cc(Cl)cc(Cl)c2N1 (centres undefined) | 2.45 µM and 3.76 µM |
| COc1ccc2n[nH]c(NC(=O)Cc3cccc(Cl)c3)c2c1 | > 99.5 µM |
| O=C(NCCc1cccc(F)c1)C(c1cccnc1)N(C(=O)c1cocn1)C1CCN(c2ccccc2F)C1 (centres undefined) | > 99.5 µM |
| Cc1cc2ncc(C(=O)Nc3ccc4oc(C)nc4c3)c(C)n2n1 | > 99.5 µM |
| C[C@@H]1CC[C@@]2(OC1)O[C@H]1C[C@H]3[C@@H]4CC=C5C[C@@H](O)CC[C@]5(C)[C@H]4CC[C@]3(C)[C@]1(O)[C@@H]2C (stereo in doubt) | > 99.5 µM |
| CC(CNc1ccc2nnnn2n1)c1nc2ccccc2s1 (centres undefined) | > 99.5 µM |
| O=C(Nc1cncn1-c1cccnc1)C1CCOc2ccc(Cl)cc21 (centres undefined) | > 99.5 µM |

| Compound | IC50 |
| --- | --- |
| CCOC(=O)[C@H]1CCCN(c2cc(Cl)cc(CC(=O)Nc3cncc4ccccc34)c2)C1 (stereo in doubt) | 2.43 µM |
| CNC(=O)CN1CC(C(=O)Nc2cncc3cccc(Cl)c23)c2cc(Cl)ccc2C1=O (centres undefined) | 0.0917 µM |
| CN(C)C(=O)CN1CCN(c2cc(Cl)cc(CC(=O)Nc3cncc4ccccc34)c2)CC1 | 2.85 µM |
| COc1cncc(C(C(=O)NCCc2cccc(F)c2)N(C(=O)c2ccco2)c2ccc(C(C)(C)C)cc2)c1C (centres undefined) | > 99.5 µM |
| O=C(Nc1cncc2ccccc12)[C@@H]1CN(S(=O)(=O)CC2CS(=O)(=O)C2)Cc2ccc(Cl)cc21 (stereo in doubt) | 8.23 µM |
| O=C(NCCc1cccc(F)c1)C(c1cccnc1)N(C(=O)c1cnc[nH]1)c1ccc2c(c1)CCCS2(=O)=O (centres undefined) | > 99 µM |
| Cc1ccncc1NC(=O)Cc1cc(Cl)cc(-c2ccc(C)c(F)c2F)c1 | 31.9 µM |
| C=CC(=O)N(c1ccc(C(C)(C)C)cc1)C(C(=O)Nc1ccc(OC)cc1OC)c1cccnc1 (centres undefined) | 6.47 µM |
| O=C(NCCc1cccc(F)c1)C(c1cccnc1)N(C(=O)c1cocn1)C1COc2cc(F)ccc21 (centres undefined) | > 99.5 µM |
| O=C(NCCc1cccc(F)c1)C(c1cccnc1)N(C(=O)c1cocn1)C1CCC2(CCO2)CC1 (centres undefined) | > 99.5 µM |
| O=C(CCl)N1CCN(Cc2cc(O)ccc2O)CC1 | 37.4 µM |
| OC(Cc1cccc(Cl)c1)Cn1cncn1 (centres undefined) | 65.3 µM |
| O=C(Cc1cc(Cl)cc(Nc2cc(Cl)ccc2Br)c1)Nc1cncc2ccccc12 | 2.1 µM |
| Cc1ccc(S(=O)(=O)N2CCN(C(=O)CCl)C[C@H]2C(=O)NCc2ccccc2)cc1 (stereo in doubt) | 3.65 µM |
| O=C(Nc1cncc2ccccc12)C1CCOc2c(OCc3ccccn3)cc(Cl)cc21 (centres undefined) | 6.43 µM |
| O=C(CCl)N1CC2CC1CN2Cc1cccc(Cl)c1 (centres undefined) | 2.17 µM |
| Clc1cccc2c1OCCC2Nc1ncccn1 (centres undefined) | > 99.5 µM |
| O=C(c1cc(=O)[nH]c2ccccc12)N1CCN(c2cccc(Cl)c2)CC1 | 2.16 µM |
| Cn1ncc(NC(=O)C2CCOc3ccc(Cl)cc32)c1C(F)F (centres undefined) | > 99.5 µM |
| Cc1ccncc1NC(=O)CN1C(=O)COc2ccc(Cl)cc21 | 59.9 µM |
| CC(C(N)=O)c1cc(Cl)cc(CC(=O)Nc2cncc3ccccc23)c1 (centres undefined) | 2.62 µM |
| Cc1ccc(NC2=C(c3ccccc3)C(=O)N(Cc3cccnc3)C2=O)cc1C | > 99.5 µM |
| Cc1[nH]c2ccccc2c1/C=N/c1sc2c(c1C#N)CCC(C)C2 (centres undefined) | > 99.5 µM |
| O=C(Cc1nnn2ccccc12)N(Cc1ccccc1)c1ccc(N2CCCCC2)cc1 | > 99.5 µM |
